Experimental data as given in patent publication US20250188032A1, “NITROGEN-CONTAINING HETEROCYCLIC COMPOUNDS AND USES THEREOF” (BNH RESEARCH CO., LTD., priority 2022, published 2025).

How the values were obtained:
[1] = test system: BDNF and GluN2B expression in SH-SY5Y cells; assay: Expression of BDNF and GluN2B in SH-SY5Y cells; type: cell-based, human; details: 1 μM, application for 6 and 24 hours
Description: Human undifferentiated neuroblastoma cell line SH-SY5Y and human embryonic kidney cell line (HEK)-293T were purchased from Korean Cell Line Bank (Korea) and Takara (Japan), respectively. Cells were grown in HyClone Minimal Essential Medium (MEM) and Dulbecco's Modified Eagle Medium (DMEM), respectively, supplemented with 10% (v/v) fetal bovine serum (FBS), penicillin (100 U/mL), and streptomycin ([…]). Cells were maintained in a humidified atmosphere of 95% air and 5% CO2 at 37° C. Cells were passaged 10 times at maximum. Cells were dissociated using 0.05% trypsin-EDTA solution and the cells were seeded in new culture dishes for maintenance.

HDAC11 = molecular target: T1, HDAC11 (Homo sapiens, UniProt Q96DB2); assay: HDAC catalytic activity, fluorogenic substrate; type: biochemical; details: 10-dose, 3-fold serial dilution starting at 100 μM, duplicates
T1 sequence (Q96DB2 1-347): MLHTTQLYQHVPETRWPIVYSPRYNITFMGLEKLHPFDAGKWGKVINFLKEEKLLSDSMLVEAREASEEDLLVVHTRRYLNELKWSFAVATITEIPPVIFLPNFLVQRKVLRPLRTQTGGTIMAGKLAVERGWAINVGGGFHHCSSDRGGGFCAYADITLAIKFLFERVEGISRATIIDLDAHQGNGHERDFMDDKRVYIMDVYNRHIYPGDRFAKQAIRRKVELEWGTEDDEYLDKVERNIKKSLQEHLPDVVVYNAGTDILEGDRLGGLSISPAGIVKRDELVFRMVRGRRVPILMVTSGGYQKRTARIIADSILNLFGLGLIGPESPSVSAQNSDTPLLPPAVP
Description: (§1) The compound (racemate) was resuspended in 100 mM DMSO and tested in a 10-dose IC50 with 3-fold serial dilution starting at 100 μM against HDACs 1-9, and 11. As reference compounds, Trichostatin A (TSA) and TMP269 were tested in a 10-dose IC50 with 3-fold serial dilution starting at 10 μM or 1 μM.
(§2) 10 μM Fluorogenic peptide from p53 residues 379-382 (RHKK(Ac)AMC) was used for the substrate for HDAC 1, 2, 3, and 6, 50 μM Fluorogenic HDAC Class2a Substrate (Trifluoroacetyl Lysine) was used for the substrate for HDAC 4, 5, 7, 9, and 11, 100 μM Fluorogenic peptide from p53 residues 379-382 (RHK(Ac)K(Ac)AMC) was used for the substrate for HDAC8.
(§3) IC50 values were calculated using the GraphPad Prism 4 program based on a sigmoidal dose-response equation and the blank (DMSO) value concentration was entered as 1.00E-12 M for curve fitting.

HDAC2 = HDAC2 (Homo sapiens, UniProt Q92769); assay: HDAC catalytic activity, fluorogenic substrate; type: biochemical; details: 10-dose, 3-fold serial dilution starting at 100 μM, duplicates
HDAC2, sequence (Q92769 whole entry): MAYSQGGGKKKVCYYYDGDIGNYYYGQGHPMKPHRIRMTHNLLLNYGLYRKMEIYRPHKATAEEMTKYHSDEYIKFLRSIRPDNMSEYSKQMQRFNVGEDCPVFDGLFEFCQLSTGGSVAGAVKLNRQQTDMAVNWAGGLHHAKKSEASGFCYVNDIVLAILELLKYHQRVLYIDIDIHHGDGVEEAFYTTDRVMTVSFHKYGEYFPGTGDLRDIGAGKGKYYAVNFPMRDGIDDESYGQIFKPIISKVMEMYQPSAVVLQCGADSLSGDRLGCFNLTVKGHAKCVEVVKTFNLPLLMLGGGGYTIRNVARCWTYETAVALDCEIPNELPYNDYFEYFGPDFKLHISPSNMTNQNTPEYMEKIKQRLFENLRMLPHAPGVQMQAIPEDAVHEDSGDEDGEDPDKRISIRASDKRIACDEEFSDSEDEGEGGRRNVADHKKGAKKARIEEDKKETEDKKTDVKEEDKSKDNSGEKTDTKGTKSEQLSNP
Description: as §1, §2, §3

HDAC3 = HDAC3 (Homo sapiens, UniProt O15379); assay: HDAC catalytic activity, fluorogenic substrate; type: biochemical; details: 10-dose, 3-fold serial dilution starting at 100 μM, duplicates
HDAC3, sequence (O15379 whole entry): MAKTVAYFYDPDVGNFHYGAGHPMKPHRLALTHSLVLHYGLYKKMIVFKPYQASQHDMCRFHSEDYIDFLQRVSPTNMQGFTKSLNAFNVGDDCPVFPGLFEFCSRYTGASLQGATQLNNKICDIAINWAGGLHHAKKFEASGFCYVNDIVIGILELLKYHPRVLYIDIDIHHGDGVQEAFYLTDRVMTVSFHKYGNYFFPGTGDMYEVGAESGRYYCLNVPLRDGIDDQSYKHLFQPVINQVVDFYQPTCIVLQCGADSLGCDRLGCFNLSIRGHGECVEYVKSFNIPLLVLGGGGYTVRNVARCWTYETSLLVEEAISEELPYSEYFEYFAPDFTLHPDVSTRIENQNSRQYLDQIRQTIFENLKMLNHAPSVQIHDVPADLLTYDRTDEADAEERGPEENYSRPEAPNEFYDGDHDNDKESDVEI
HDAC3, sequence (Q9Y618 395-489 partner limits assumed): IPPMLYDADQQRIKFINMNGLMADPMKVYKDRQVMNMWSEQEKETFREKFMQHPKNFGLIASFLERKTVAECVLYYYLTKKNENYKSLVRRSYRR
Description: as §1, §2, §3

HDAC4 = HDAC4 (Homo sapiens, UniProt P56524); assay: HDAC catalytic activity, fluorogenic substrate; type: biochemical; details: 10-dose, 3-fold serial dilution starting at 100 μM, duplicates
HDAC4, sequence (P56524 whole entry, species assumed): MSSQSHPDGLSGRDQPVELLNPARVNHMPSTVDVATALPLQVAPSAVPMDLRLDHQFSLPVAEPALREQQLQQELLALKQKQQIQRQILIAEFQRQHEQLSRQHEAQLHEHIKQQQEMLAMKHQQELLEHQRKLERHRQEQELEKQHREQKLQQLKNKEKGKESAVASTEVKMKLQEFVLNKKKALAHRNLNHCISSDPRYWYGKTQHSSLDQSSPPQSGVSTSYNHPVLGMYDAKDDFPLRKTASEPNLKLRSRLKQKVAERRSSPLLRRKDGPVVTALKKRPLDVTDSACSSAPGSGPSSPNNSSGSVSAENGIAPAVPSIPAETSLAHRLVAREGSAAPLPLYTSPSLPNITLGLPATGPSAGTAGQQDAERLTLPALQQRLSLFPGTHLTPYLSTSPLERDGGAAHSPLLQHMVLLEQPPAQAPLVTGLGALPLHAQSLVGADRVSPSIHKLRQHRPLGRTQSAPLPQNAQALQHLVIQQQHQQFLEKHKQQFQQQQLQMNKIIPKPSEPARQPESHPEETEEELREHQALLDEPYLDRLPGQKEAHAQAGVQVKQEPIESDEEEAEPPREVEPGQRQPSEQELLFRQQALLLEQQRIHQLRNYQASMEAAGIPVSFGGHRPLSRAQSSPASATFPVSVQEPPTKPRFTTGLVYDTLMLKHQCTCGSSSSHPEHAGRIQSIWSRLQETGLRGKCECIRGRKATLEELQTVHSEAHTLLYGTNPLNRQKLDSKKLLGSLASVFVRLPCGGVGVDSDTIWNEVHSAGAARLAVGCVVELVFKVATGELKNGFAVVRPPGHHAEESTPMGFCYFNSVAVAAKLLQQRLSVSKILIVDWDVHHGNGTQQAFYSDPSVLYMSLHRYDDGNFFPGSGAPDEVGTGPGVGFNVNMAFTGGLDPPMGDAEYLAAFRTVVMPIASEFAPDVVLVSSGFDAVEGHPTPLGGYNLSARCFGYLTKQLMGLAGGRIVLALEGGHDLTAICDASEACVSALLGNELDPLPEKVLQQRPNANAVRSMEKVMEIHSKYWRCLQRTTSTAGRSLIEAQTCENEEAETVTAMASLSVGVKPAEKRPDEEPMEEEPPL
Description: as §1, §2, §3

HDAC5 = HDAC5 (Homo sapiens, UniProt Q9UQL6); assay: HDAC catalytic activity, fluorogenic substrate; type: biochemical; details: 10-dose, 3-fold serial dilution starting at 100 μM, duplicates
HDAC5, sequence (Q9UQL6 whole entry, species assumed): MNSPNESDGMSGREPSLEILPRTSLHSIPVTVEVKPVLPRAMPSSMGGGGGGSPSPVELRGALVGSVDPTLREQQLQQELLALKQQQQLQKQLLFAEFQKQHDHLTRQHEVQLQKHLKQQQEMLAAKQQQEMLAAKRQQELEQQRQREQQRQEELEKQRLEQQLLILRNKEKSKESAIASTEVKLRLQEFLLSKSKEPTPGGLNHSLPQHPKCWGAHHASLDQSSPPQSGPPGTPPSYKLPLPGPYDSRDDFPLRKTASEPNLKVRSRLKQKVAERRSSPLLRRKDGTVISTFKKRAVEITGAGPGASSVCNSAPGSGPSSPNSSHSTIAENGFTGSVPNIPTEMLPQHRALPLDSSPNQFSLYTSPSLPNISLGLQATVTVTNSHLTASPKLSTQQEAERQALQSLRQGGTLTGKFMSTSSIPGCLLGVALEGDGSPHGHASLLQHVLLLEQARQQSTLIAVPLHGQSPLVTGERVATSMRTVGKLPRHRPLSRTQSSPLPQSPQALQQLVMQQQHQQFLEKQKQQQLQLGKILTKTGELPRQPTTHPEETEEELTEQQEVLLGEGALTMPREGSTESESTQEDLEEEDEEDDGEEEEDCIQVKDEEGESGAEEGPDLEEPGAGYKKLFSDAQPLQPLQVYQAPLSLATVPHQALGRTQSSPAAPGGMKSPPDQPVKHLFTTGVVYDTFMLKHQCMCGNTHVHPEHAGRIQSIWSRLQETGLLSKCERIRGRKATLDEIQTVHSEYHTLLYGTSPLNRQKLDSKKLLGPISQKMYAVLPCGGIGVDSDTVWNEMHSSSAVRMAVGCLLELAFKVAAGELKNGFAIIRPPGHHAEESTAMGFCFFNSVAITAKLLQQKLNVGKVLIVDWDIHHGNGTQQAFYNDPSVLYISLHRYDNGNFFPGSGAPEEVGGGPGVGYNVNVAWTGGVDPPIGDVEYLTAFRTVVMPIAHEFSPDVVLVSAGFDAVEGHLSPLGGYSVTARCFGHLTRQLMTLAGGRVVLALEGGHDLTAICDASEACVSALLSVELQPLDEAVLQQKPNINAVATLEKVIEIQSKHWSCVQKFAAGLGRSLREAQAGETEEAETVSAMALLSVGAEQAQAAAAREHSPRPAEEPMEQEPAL
Description: as §1, §2, §3

[2] = test system: APP/PS1 mice sensory cerebral cortex; assay: TC potency and GABA/AMPA ratio in sensory cortex of Alzheimer's animal model; type: in vivo
Description: For intravenous injection, the tail vein injection method was used. […] In the drug injection test, the compound was administered once a day for about 11 to 13 days. 5 mice were used for the compound administration group and the control group, respectively.
For TC or hippocampus slice preparation. 9 to 10 weeks-old male C57BL/6J mice were anesthetized with isoflurane. Then, the brain was rapidly cooled via transcardial perfusion with ice-cold sucrose-artificial cerebrospinal fluid (aCSF). The brain was removed and placed in ice-cold sucrose aCSF. Paracoronal slices were prepared at an angle of 50° relative to the midline on a ramp at an angle of 10°. […]
For the minimal stimulation protocol (Potency), VB thalamic stimulation intensity was adjusted to find the lowest intensity that elicited a mixture of synaptic responses and failures. Failure rate was calculated as the number of failures/total number of trials. Potency was calculated as the mean EPSC peak amplitude excluding failures (see Chittajallu & Isaac, 2010, Emergence of cortical inhibition by coordinated sensory-driven plasticity at distinct synaptic loci, DOI: 10.1038/nn.2639; see Isaac et al., 1997, Silent Synapses during Development of Thalamocortical Inputs, https://doi.org/10.1016/S08966273((0)80267-6; and see Stevens & Wang, 1995, Facilitation and depression at single central synapses, DOI: 10.1016/08966273(95)90223-6). […]

Row | Inhibitory effect on HDAC11 catalytic activity (HDAC11) | Inhibitory effect on HDAC2 catalytic activity (HDAC2) | Inhibitory effect on HDAC3 catalytic activity (HDAC3) | Inhibitory effect on HDAC4 catalytic activity (HDAC4) | Inhibitory effect on HDAC5 catalytic activity (HDAC5) | SMILES | BDNF expression [1] | GluN2B expression [1] | Balance of excitation/inhibition (GABA/AMPA ratio) [2] | Excitatory TC synaptic potency (TC potency) [2]
1 | did not show any inhibitory effect | did not show any inhibitory effect | did not show any inhibitory effect | did not show any inhibitory effect | did not show any inhibitory effect | CC1CCC(C(=O)O)CN1C(=O)Cc1ccc(F)cc1Cl (racemic) [BnH12001, 1-(2-(2-chloro-4-fluorophenyl)acetyl)-6-methylpiperidine-3-carboxylic acid] | augmented | augmented |  | 
2 |  |  |  |  |  | C[C@@H]1CC[C@H](C(=O)O)CN1C(=O)Cc1ccc(F)cc1Cl [BnH12001 enantiomer (3S,6R, 98%<), (3S,6R)-1-(2-(2-chloro-4-fluorophenyl)acetyl)-6-methylpiperidine-3-carboxylic acid] |  |  | maintaining the balance of excitation/inhibition | increased the excitatory TC synaptic potency
